Patent publication US8597666B2, “Compressed solid dosage form manufacturing process well-suited for use with drugs of low aqueous solubility and compressed solid dosage forms made thereby” (Teva Pharmaceutical Industries, Ltd., priority 2004, dated 2013)
Where a name gives a salt, the structure may show the parent alone.

Columns and labels:
[1] = Particle size distribution by laser light scattering (Malvern Mastersizer S); assay type: physicochemical; conditions: raloxifene hydrochloride used in Formulations 1-4; mean equivalent spherical diameter
Excerpt: All particle sizes herein refer to the mean equivalent spherical diameter measured by laser light scattering techniques. Thus, the notation “d(0.5) greater than about 35 μm” means that 50% of the particles by volume have a mean equivalent spherical diameter of more than about 35 μm, as measured by laser light scattering. The laser light scattering measurement instrument used to measure the particle size distributions in the Examples was a Malvern Mastersizer® S. The dissolution profile was generated by testing in either 900 mL or 2 L of a 0.1% aqueous polysorbate 80 solution, using paddle apparatus (USP Apparatus II) at 50 rpm at 37° C.

[2] = starch content increased from 5 to 20%; tablets made by double compression; cited from earlier work

| particle size d(0.5) [1] | particle size d(0.9) [1] | SMILES | increase in rate of dissolution of salicylic acid from tablets [2] |
| --- | --- | --- | --- |
| 38.8 μm | 90.4 μm | O=C(c1ccc(OCCN2CCCCC2)cc1)c1c(-c2ccc(O)cc2)sc2cc(O)ccc12 [raloxifene hydrochloride] |  |
|  |  | O=C(O)c1ccccc1O [salicylic acid] | three fold |
